In US8741934B2, “Inhibitors of ion channels” (Pfizer Limited, priority 2007, dated 2014):

Biological target: T1, hSCN3A sodium channels (Homo sapiens, UniProt Q9NY46)
T1 construct: expressed in transfected cells
Assay: hSCN3A electrophysiology, whole-cell patch-clamp or PatchXpress 7000, estimated IC-50 (Table B)
Type: cell-based
Settings: estimated IC-50; hSCN3A cells, whole-cell patch-clamp or PatchXpress 7000; read-out: SCN3A EIC-50
Procedure: Human Embryonic Kidney (HEK) cells were transfected with an hSCN3A construct using lipofectamine reagent (Invitrogen), using standard techniques. […] Clones were screened for expression using the whole-cell voltage-clamp technique.
HEK cells stably transfected with hSCN3A were maintained in DMEM medium supplemented with 10% heat-inactivated fetal bovine serum and 400 μg/ml G418 sulfate in an incubator at 37° C. with a humidified atmosphere of 10% CO2. […] For electrophysiological studies, cells were removed from the culture flask by brief trypsinization and replated at low density onto glass cover slips. Cells were typically used for electrophysiological experiments within 24 to 72 h after plating.
All recordings were made at room temperature (22-24° C.) using AXOPATCH 200B amplifiers and PCLAMP software (Axon Instruments, Burlingame, Calif.) or PatchXpress 7000 hardware and associated software (Axon Instruments, Burlingame, Calif.).
Current records were acquired at 20 to 50 KHz and filtered at 5 to 10 KHz.
HEK cells stably transfected with hSCN3A were viewed under Hoffman contrast optics and placed in front of an array of flow pipes emitting either control or compound-containing extracellular solutions. All compounds were dissolved in dimethyl sulfoxide to make 10 mM stock solutions, which were then diluted into extracellular solution to attain the final concentrations desired.
The voltage-dependence of inactivation was determined by applying a series of depolarizing prepulses (8 sec long in 10 mV increments) from a negative holding potential. The voltage was then immediately stepped to 0 mV to assess the magnitude of the sodium current. Currents elicited at 0 mV were plotted as a function of prepulse potential to allow estimation of the voltage midpoint of inactivation (V1/2). Cells were then voltage clamped at the empirically determined V1/2.
Compounds were tested for their ability to inhibit hSCN3A sodium channels by activating the channel with a 20 msec voltage step to 0 mV following an 8 second conditioning prepulse to the empirically determined V1/2 (Table B). Compound effect (% inhibition) was determined by difference in current amplitude before and after application of test compounds. […] Inhibition values <20% and >80% were excluded from the calculation.
In some cases electrophysiological assays were conducted with PatchXpress 7000 hardware and associated software (Molecular Devices Corp) (Table B). All assay buffers and solutions were identical to those used in conventional whole-cell voltage clamp experiments described above. hSCN3A cells were grown as above to 50%-80% confluency and harvested by trypsinization. Trypsinized cells were washed and resuspended in extracellular buffer at a concentration of 1×10^6 cells/ml. The onboard liquid handling facility of the PatchXpress was used for dispensing cells and application of test compounds. Determination of the voltage midpoint of inactivation was as described for conventional whole-cell recordings. Cells were then voltage-clamped to the empirically determined V1/2 and current was activated by a 20 msec voltage step to 0 mV.

T1 sequence (Q9NY46 whole entry): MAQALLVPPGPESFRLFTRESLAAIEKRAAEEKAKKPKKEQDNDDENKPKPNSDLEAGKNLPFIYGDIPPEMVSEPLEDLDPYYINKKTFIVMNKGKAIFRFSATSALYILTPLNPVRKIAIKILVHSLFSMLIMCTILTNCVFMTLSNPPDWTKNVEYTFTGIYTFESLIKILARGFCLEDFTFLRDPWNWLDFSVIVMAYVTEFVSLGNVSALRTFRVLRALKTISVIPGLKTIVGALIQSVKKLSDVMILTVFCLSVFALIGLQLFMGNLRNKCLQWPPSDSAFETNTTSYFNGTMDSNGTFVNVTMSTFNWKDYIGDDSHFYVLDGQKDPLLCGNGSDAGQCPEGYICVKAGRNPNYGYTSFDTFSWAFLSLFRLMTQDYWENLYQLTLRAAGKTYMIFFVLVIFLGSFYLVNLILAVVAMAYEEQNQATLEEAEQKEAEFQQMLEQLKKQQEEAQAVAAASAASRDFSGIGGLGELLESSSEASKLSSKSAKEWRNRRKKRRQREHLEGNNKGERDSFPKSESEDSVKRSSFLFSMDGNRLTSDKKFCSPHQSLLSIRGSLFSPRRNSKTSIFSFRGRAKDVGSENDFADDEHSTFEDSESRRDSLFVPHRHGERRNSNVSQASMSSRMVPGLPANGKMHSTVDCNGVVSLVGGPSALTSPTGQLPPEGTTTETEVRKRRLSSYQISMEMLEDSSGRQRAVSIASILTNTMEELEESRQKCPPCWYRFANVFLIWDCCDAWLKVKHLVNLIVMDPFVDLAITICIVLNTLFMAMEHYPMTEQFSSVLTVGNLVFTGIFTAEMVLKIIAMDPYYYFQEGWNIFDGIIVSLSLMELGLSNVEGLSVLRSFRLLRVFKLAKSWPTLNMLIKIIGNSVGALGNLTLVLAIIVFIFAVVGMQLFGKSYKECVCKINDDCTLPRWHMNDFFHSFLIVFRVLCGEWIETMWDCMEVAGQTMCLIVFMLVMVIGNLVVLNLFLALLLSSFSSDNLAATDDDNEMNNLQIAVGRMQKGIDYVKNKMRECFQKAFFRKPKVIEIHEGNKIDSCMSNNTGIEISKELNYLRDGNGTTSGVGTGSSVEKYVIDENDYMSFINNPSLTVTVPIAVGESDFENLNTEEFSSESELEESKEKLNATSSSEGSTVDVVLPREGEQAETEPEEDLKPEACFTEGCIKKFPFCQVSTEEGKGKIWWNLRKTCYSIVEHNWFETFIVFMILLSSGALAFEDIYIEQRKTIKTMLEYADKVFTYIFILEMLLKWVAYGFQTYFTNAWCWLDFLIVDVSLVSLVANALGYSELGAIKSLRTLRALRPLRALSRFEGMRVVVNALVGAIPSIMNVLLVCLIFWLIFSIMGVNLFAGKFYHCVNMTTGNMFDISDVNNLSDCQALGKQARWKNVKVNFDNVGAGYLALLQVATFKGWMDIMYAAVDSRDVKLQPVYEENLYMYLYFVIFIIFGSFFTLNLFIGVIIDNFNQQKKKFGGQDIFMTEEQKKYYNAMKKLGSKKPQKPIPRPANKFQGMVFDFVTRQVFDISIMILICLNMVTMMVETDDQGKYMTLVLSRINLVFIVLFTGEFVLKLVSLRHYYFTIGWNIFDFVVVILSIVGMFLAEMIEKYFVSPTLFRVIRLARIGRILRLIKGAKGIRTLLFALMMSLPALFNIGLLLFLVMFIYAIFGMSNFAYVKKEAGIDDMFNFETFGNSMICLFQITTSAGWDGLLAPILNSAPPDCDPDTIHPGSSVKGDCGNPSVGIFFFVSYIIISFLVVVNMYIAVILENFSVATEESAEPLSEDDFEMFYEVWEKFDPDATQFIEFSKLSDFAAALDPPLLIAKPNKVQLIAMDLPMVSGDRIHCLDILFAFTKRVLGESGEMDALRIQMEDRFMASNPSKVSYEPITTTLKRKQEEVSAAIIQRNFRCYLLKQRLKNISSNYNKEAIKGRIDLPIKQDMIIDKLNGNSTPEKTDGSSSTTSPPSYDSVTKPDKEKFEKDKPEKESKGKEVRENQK

Structure (SMILES)	IC50 [nM]
O=C(NCc1ccc(C(F)(F)F)c(F)c1)c1ccc(S(=O)(=O)Nc2ncns2)cc1Cl [Example 375, 2-Chloro-N-[3-fluoro-4-(trifluoromethyl)benzyl]-4-[(1,2,4-thiadiazol-5-ylamino)sulfonyl]benzamide]	450
O=C(NCc1ccc(C(F)(F)F)c(F)c1)c1ccc(S(=O)(=O)Nc2nccs2)c(F)c1 [Example 304, 3-Fluoro-N-[3-fluoro-4-(trifluoromethyl)benzyl]-4-[(1,3-thiazol-2-yl-amino)sulfonyl]benzamide]	70
O=C(NCCOc1ccccc1Cl)c1ccc(S(=O)(=O)Nc2nccs2)cc1 [Example 148, N-[2-(2-chlorophenoxy)ethyl]-4-[(1,3-thiazol-2-ylamino)sulfonyl]benzamide]	2500
CC(C)(C)c1ccc(CNC(=O)c2ccc(S(=O)(=O)Nc3nccs3)cc2)cc1 [Example 387, N-(4-tert-butylbenzyl)-4-[(1,3-thiazol-2-ylamino)sulfonyl]benzamide]	170
COC(=O)c1csc(NS(=O)(=O)c2ccc(C(=O)NCc3ccc(C(F)(F)F)cc3)cc2)n1 [Example 17, Methyl 2-({[4-({[4-(trifluoromethyl)benzyl]amino}carbonyl)phenyl]sulfonyl}amino)-1,3-thiazole-4-carboxylate]	2940
N#Cc1cc(CNC(=O)c2ccc(S(=O)(=O)Nc3nccs3)cc2)ccc1F [Example 55, N-(3-cyano-4-fluorobenzyl)-4-[(1,3-thiazol-2-ylamino)sulfonyl]benzamide]	1410
O=C(NCc1ccc(F)c(F)c1)c1ccc(S(=O)(=O)Nc2ncc(Cl)s2)cc1F [Example 361, 4-{[(5-Chloro-1,3-thiazol-2-yl)amino]sulfonyl}-N-(3,4-difluorobenzyl)-2-fluorobenzamide]	310
O=C(NCc1cc(F)cc(F)c1)c1ccc(S(=O)(=O)Nc2nccs2)cc1 [Example 83, N-(3,5-difluorobenzyl)-4-[(1,3-thiazol-2-ylamino)sulfonyl]benzamide]	620
O=C(NCc1ccccc1C(F)(F)F)c1ccc(S(=O)(=O)Nc2nccs2)cc1 [Example 88, 4-[(1,3-Thiazol-2-ylamino)sulfonyl]-N-[2-(trifluoromethyl)benzyl]benzamide]	> 100
O=C(NCc1ccc(C(F)(F)F)cc1)c1ccc(S(=O)(=O)Nc2nc[nH]n2)cc1 [Example 390, 4-[(1H-1,2,4-triazol-3-ylamino)sulfonyl]-N-[4-(trifluoromethyl)benzyl]benzamide]	9950
O=C(NCCc1cccc(Cl)c1)c1ccc(S(=O)(=O)Nc2nccs2)cc1 [Example 70, N-[2-(3-chlorophenyl)ethyl]-4-[(1,3-thiazol-2-ylamino)sulfonyl]benzamide]	> 300
O=C(c1ccc(S(=O)(=O)Nc2nccs2)cc1)N1CCC(c2ccccc2)C1 (centres unmarked) [Example 191, 4-[(3-Phenylpyrrolidin-1-yl)carbonyl]-N-1,3-thiazol-2-yl-benzenesulfonamide]	2250
O=C(NCc1cccc(Cl)c1Cl)c1ccc(S(=O)(=O)Nc2nccs2)cc1 [Example 97, N-(2,3-dichlorobenzyl)-4-[(1,3-thiazol-2-ylamino)sulfonyl]benzamide]	640
O=C(NCc1ccc(C(F)(F)F)nc1)c1ccc(S(=O)(=O)Nc2nccs2)cc1 [Example 408, 4-[(1,3-Thiazol-2-ylamino)sulfonyl]-N-{[6-(trifluoromethyl)pyridin-3-yl]methyl}benzamide]	1090
O=C(NCc1ccc(F)c(C(F)(F)F)c1)c1ccc(S(=O)(=O)Nc2ncc(Cl)s2)cc1F [Example 353, 4-{[(5-Chloro-1,3-thiazol-2-yl)amino]sulfonyl}-2-fluoro-N-[4-fluoro-3-(trifluoromethyl)benzyl]benzamide]	220
O=C(N[C@H]1C[C@@H]1c1ccccc1)c1ccc(S(=O)(=O)Nc2ncc(Cl)s2)cc1 [Example 42, 4-{[(5-Chloro-1,3-thiazol-2-yl)amino]sulfonyl}-N-[(1S,2R)-2-phenylcyclopropyl]benzamide]	510

Structure (SMILES)	IC50 [nM]
O=C(NCc1ccc(C(F)(F)F)c(F)c1)c1ccc(S(=O)(=O)Nc2nccs2)cn1 [Example 340, N-[3-fluoro-4-(trifluoromethyl)benzyl]-5-[(1,3-thiazol-2-ylamino)sulfonyl]pyridine-2-carboxamide]	280
O=C(NCc1ccc(Cl)cc1F)c1ccc(S(=O)(=O)Nc2nccs2)cc1 [Example 93, N-(4-chloro-2-fluorobenzyl)-4-[(1,3-thiazol-2-ylamino)sulfonyl]benzamide]	460
O=C(c1ccc(S(=O)(=O)Nc2nccs2)cc1)N1CCOC(COc2cc(F)cc(F)c2)C1 (centres unmarked) [Example 262, 4-({2-[(3,5-Difluorophenoxy)methyl]morpholin-4-yl}carbonyl)-N-1,3-thiazol-2-ylbenzenesulfonamide]	6850
O=C(NCc1ccc(C(F)(F)F)cc1)c1ccc(S(=O)(=O)Nc2ncns2)cc1 [Example 20, 4-[(1,2,4-Thiadiazol-5-ylamino)sulfonyl]-N-[4-(trifluoromethyl)benzyl]benzamide]	260
Cc1cc(NC(=O)c2ccc(S(=O)(=O)Nc3nccs3)cc2)n(-c2ccccc2)n1 [Example 307, N-(3-methyl-1-phenyl-1H-pyrazol-5-yl)-4-[(1,3-thiazol-2-ylamino)sulfonyl]benzamide]	23700
O=C(NCc1ccc(C(F)(F)F)c(Cl)c1)c1ccc(S(=O)(=O)Nc2ncns2)c(F)c1 [Example 317, N-[3-chloro-4-(trifluoromethyl)benzyl]-3-fluoro-4-[(1,2,4-thiadiazol-5-ylamino)sulfonyl]benzamide]	40
O=C(NCc1ccc(OC(F)(F)F)c(F)c1)c1ccc(S(=O)(=O)Nc2nccs2)cc1 [Example 394, N-[3-fluoro-4-(trifluoromethoxy)benzyl]-4-[(1,3-thiazol-2-ylamino)sulfonyl]benzamide]	90
O=C(c1ccc(S(=O)(=O)Nc2nccs2)cc1)N1CCCC1Cc1cccc(Cl)c1 (centres unmarked) [Example 279, 4-{[2-(3-Chlorobenzyl)pyrrolidin-1-yl]carbonyl}-N-1,3-thiazol-2-yl-benzenesulfonamide]	2200
O=C(NCc1ccc(F)c(C(F)(F)F)c1)c1ccc(S(=O)(=O)Nc2nccs2)c(Cl)c1 [Example 290, 3-Chloro-N-[4-fluoro-3-(trifluoromethyl)benzyl]-4-[(1,3-thiazol-2-yl-amino)sulfonyl]benzamide]	1390
O=C(NCc1ccc(C(F)(F)F)c(F)c1)c1ccc(S(=O)(=O)Nc2ncc(Cl)s2)c(F)c1 [Example 310, 4-{[(5-Chloro-1,3-thiazol-2-yl)amino]sulfonyl}-3-fluoro-N-[3-fluoro-4-(trifluoromethyl)benzyl]benzamide]	50
COc1ccc(CNC(=O)c2ccc(S(=O)(=O)Nc3nccs3)cc2)cc1 [Example 176, N-(4-methoxybenzyl)-4-[(1,3-thiazol-2-ylamino)sulfonyl]benzamide]	4500
CC(C)(NC(=O)c1ccc(S(=O)(=O)Nc2nccs2)cc1)c1cccc(C(F)(F)F)c1 [Example 125, N-{1-methyl-1-[3-(trifluoromethyl)phenyl]ethyl}-4-[(1,3-thiazol-2-ylamino)sulfonyl]benzamide]	6450
O=C(NCc1cccc(C(F)(F)F)c1)c1ccc(S(=O)(=O)Nc2ncc(Cl)s2)cc1F [Example 354, 4-{[(5-Chloro-1,3-thiazol-2-yl)amino]sulfonyl}-2-fluoro-N-[3-(trifluoromethyl)benzyl]benzamide]	210
O=C(NCc1ccc(C(F)(F)F)c(Cl)c1)c1ccc(S(=O)(=O)Nc2ncns2)cc1Cl [Example 374, 2-Chloro-N-[3-chloro-4-(trifluoromethyl)benzyl]-4-[(1,2,4-thiadiazol-5-ylamino)sulfonyl]benzamide]	230
Cc1c(Cl)cccc1CNC(=O)c1ccc(S(=O)(=O)Nc2nccs2)cc1 [Example 61, N-(3-chloro-2-methylbenzyl)-4-[(1,3-thiazol-2-ylamino)sulfonyl]benzamide]	160
O=C(NCc1cccc(C(F)(F)F)c1)c1ccc(S(=O)(=O)Nc2ncc(Cl)s2)cc1 [Example 28, 4-{[(5-Chloro-1,3-thiazol-2-yl)amino]sulfonyl}-N-[3-(trifluoromethyl)benzyl]benzamide]	240
